From ChEMBL document CHEMBL4390652, “Design, biological evaluation and X-ray crystallography of nanomolar multifunctional ligands targeting simultaneously acetylcholinesterase and glycogen synthase kinase-3” (Eur J Med Chem, 2019) come the findings set out here.

Experiment [1] concerns the target RAF proto-oncogene serine/threonine-protein kinase (Homo sapiens) (UniProt P04049). The experiment can be described thus: Binding affinity to wild-type human partial length RAF1 (I330 to T640 residues) expressed in bacterial expression system assessed as residual binding level at 10 uM by Kinomescan method relative to control.
Experiment [2] concerns the target Phosphatidylinositol 3-kinase C2 domain-containing subunit gamma (Homo sapiens) (UniProt O75747). The experiment can be described thus: Binding affinity to wild-type human partial length PIK3C2G (M1 to I1446 residues) expressed in mammalian expression system assessed as residual binding level at 10 uM by Kinomescan method relative to control.
Experiment [3] deals with Receptor-type tyrosine-protein kinase FLT3 (Homo sapiens), P36888 [D835Y]. The experiment can be described thus: Binding affinity to human partial length FLT3 D835Y mutant (Q580 to Y969 residues) expressed in bacterial expression system assessed as residual binding level at 10 uM by Kinomescan method relative to control.
The target in experiment [4] is Serine/threonine-protein kinase 3 (Homo sapiens) (UniProt Q13188). The experiment can be described thus: Binding affinity to wild-type human partial length MST2 (D17 to E318 residues) expressed in bacterial expression system assessed as residual binding level at 10 uM by Kinomescan method relative to control.
The target in experiment [5] is SNF-related serine/threonine-protein kinase (Homo sapiens) (UniProt Q9NRH2). The experiment can be described thus: Binding affinity to wild-type human partial length SNRK (M1 to E339 residues) expressed in mammalian expression system assessed as residual binding level at 10 uM by Kinomescan method relative to control.
For experiment [6], the target named is Proto-oncogene tyrosine-protein kinase receptor Ret (Homo sapiens) (UniProt P07949). Description: Binding affinity to wild-type human partial length RET (E713 to D1014 residues) expressed in bacterial expression system assessed as residual binding level at 10 uM by Kinomescan method relative to control.
For experiment [7], the target named is Activated CDC42 kinase 1 (Homo sapiens) (UniProt Q07912). The experiment can be described thus: Binding affinity to wild-type human partial length TNK2 (S159 to D474 residues) expressed in bacterial expression system assessed as residual binding level at 10 uM by Kinomescan method relative to control.
Experiment [8] addresses Death-associated protein kinase 1 (Homo sapiens) (UniProt P53355). The experiment can be described thus: Binding affinity to wild-type human partial length DAPK1 (M1 to F296 residues) expressed in bacterial expression system assessed as residual binding level at 10 uM by Kinomescan method relative to control.
For experiment [9], the target named is Mitogen-activated protein kinase 4 (Homo sapiens) (UniProt P31152). Description: Binding affinity to wild-type human partial length ERK4 (M1 to L365 residues) expressed in bacterial expression system assessed as residual binding level at 10 uM by Kinomescan method relative to control.
Experiment [10] deals with Cyclin-dependent kinase 4 (Homo sapiens) (UniProt P11802). The experiment can be described thus: Binding affinity to wild-type human full length CDK4 (M1 to E303 residues) expressed in mammalian expression system assessed as residual binding level at 10 uM by Kinomescan method relative to control.
The target of experiment [11] is Mitogen-activated protein kinase kinase kinase kinase 1 (Homo sapiens) (UniProt Q92918). Description: Binding affinity to wild-type human full length HPK1 (M1 to R799 residues) expressed in bacterial expression system assessed as residual binding level at 10 uM by Kinomescan method relative to control.
For experiment [12], the target named is MAP/microtubule affinity-regulating kinase 3 (Homo sapiens) (UniProt P27448). The experiment can be described thus: Binding affinity to wild-type human full length MARK3 (M1 to L729 residues) expressed in bacterial expression system assessed as residual binding level at 10 uM by Kinomescan method relative to control.
Experiment [13] addresses Peripheral plasma membrane protein CASK (Homo sapiens) (UniProt O14936). Description: Binding affinity to wild-type human partial length CASK (M1 to H315 residues) expressed in mammalian expression system assessed as residual binding level at 10 uM by Kinomescan method relative to control.
The target of experiment [14] is Cyclin-dependent kinase 5 (Homo sapiens) (UniProt Q00535). Description: Binding affinity to wild-type human full length CDK5 (M1 to P292 residues) expressed in bacterial expression system assessed as residual binding level at 10 uM by Kinomescan method relative to control.
Experiment [15] has as its system Leucine-rich repeat serine/threonine-protein kinase 2 (Homo sapiens), Q5S007 [G2019S]. Description: Binding affinity to human partial length LRRK2 G2019S mutant (H970 to E2527 residues) expressed in mammalian expression system assessed as residual binding level at 10 uM by Kinomescan method relative to control.
Experiment [16] has as its target Cyclin-dependent kinase 18 (Homo sapiens) (UniProt Q07002). Description: Binding affinity to wild-type human full length PCTK3 (M3 to F474 residues) expressed in bacterial expression system assessed as residual binding level at 10 uM by Kinomescan method relative to control.
The target in experiment [17] is Casein kinase I isoform delta (Homo sapiens) (UniProt P48730). Description: Binding affinity to wild-type human full length CSNK1D (M1 to K409 residues) expressed in bacterial expression system assessed as residual binding level at 10 uM by Kinomescan method relative to control.
In experiment [18] the target is Serine/threonine-protein kinase VRK2 (Homo sapiens) (UniProt Q86Y07). The experiment can be described thus: Binding affinity to wild-type human partial length VRK2 (M1 to T336 residues) expressed in mammalian expression system assessed as residual binding level at 10 uM by Kinomescan method relative to control.
The target in experiment [19] is Myosin light chain kinase (Homo sapiens) (UniProt Q32MK0). Description: Binding affinity to wild-type human partial length MLCK (D488 to K800 residues) expressed in bacterial expression system assessed as residual binding level at 10 uM by Kinomescan method relative to control.
For experiment [20], the target named is Tyrosine-protein kinase JAK3 (Homo sapiens) (UniProt P52333). Description: Binding affinity to wild-type human partial length JAK3 JH1 catalytic domain (I781 to S1124 residues) expressed in mammalian expression system assessed as residual binding level at 10 uM by Kinomescan method relative to control.
Experiment [21] addresses Calcium/calmodulin-dependent protein kinase type II subunit delta (Homo sapiens) (UniProt Q13557). Description: Binding affinity to wild-type human partial length CAMK2D (M1 to E329 residues) expressed in bacterial expression system assessed as residual binding level at 10 uM by Kinomescan method relative to control.
Experiment [22] addresses RAC-gamma serine/threonine-protein kinase (Homo sapiens) (UniProt Q9Y243). Description: Binding affinity to wild-type human partial length AKT3 expressed in bacterial expression system assessed as residual binding level at 10 uM by Kinomescan method relative to control.
The target of experiment [23] is Tyrosine-protein kinase BTK (Homo sapiens) (UniProt Q06187). The experiment can be described thus: Binding affinity to wild-type human full length BTK (M1 to S659 residues) expressed in mammalian expression system assessed as residual binding level at 10 uM by Kinomescan method relative to control.
For experiment [24], the target named is Serine/threonine-protein kinase ULK1 (Homo sapiens) (UniProt O75385). Description: Binding affinity to wild-type human partial length ULK1 (M1 to T309 residues) expressed in mammalian expression system assessed as residual binding level at 10 uM by Kinomescan method relative to control.
Chain of Serine/threonine-protein kinase ULK1 (Homo sapiens) (O75385 whole entry, the tested form may be a part): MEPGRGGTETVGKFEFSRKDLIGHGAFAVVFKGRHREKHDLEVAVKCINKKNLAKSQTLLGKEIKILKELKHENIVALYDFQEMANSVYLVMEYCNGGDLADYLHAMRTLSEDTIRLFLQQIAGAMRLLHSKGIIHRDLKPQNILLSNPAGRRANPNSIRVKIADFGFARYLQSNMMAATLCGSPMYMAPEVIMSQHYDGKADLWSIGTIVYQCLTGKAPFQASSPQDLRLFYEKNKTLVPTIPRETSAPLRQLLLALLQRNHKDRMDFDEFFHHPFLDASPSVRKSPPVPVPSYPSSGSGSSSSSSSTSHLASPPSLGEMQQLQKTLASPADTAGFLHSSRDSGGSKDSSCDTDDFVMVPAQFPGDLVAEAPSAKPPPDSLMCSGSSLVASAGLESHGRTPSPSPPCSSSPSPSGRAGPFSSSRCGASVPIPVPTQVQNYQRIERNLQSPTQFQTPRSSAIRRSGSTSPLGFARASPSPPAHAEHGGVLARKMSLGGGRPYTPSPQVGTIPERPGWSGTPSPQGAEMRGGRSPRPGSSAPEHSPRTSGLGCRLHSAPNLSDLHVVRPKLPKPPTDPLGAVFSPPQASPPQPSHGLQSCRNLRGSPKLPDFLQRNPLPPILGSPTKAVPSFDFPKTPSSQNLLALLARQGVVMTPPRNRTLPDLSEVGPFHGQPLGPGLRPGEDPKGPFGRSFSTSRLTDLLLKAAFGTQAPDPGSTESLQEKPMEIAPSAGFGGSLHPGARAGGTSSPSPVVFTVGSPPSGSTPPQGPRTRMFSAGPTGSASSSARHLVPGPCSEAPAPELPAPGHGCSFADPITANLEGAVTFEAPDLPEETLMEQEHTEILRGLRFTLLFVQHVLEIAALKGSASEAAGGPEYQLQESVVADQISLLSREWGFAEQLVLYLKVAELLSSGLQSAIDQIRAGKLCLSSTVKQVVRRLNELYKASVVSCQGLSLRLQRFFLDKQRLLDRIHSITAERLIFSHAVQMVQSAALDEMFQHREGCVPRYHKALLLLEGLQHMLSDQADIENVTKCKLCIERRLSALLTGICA

Chain of Cyclin-dependent kinase 18 (Homo sapiens) (Q07002 whole entry, the tested form may be a part, canonical isoform): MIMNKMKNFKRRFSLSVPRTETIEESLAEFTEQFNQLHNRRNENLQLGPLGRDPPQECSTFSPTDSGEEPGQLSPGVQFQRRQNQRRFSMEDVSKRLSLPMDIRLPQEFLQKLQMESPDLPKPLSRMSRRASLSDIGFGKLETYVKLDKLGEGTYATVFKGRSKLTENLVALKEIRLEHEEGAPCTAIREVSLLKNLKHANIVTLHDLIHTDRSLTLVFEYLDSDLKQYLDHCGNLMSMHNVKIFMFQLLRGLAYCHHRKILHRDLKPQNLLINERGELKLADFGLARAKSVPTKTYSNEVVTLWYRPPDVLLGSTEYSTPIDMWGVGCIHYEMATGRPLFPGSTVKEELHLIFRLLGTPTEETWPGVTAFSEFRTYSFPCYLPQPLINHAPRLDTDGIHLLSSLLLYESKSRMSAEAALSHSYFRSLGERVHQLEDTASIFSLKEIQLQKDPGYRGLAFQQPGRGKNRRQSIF
Chain of Calcium/calmodulin-dependent protein kinase type II subunit delta (Homo sapiens) (Q13557 whole entry, the tested form may be a part): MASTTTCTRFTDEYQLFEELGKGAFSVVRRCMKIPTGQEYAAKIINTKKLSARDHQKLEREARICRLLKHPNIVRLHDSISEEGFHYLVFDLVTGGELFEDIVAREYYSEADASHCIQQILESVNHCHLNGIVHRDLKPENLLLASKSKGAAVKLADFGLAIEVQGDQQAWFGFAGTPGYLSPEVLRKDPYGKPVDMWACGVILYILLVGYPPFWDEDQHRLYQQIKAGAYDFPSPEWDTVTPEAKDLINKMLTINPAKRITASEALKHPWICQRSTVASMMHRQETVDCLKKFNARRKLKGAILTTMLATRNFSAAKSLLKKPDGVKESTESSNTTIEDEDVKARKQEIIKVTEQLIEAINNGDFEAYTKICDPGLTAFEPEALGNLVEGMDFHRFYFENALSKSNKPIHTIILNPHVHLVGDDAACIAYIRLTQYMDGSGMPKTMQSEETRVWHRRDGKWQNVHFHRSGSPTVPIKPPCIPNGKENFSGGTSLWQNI
Chain of Tyrosine-protein kinase BTK (Homo sapiens) (Q06187 whole entry, the tested form may be a part): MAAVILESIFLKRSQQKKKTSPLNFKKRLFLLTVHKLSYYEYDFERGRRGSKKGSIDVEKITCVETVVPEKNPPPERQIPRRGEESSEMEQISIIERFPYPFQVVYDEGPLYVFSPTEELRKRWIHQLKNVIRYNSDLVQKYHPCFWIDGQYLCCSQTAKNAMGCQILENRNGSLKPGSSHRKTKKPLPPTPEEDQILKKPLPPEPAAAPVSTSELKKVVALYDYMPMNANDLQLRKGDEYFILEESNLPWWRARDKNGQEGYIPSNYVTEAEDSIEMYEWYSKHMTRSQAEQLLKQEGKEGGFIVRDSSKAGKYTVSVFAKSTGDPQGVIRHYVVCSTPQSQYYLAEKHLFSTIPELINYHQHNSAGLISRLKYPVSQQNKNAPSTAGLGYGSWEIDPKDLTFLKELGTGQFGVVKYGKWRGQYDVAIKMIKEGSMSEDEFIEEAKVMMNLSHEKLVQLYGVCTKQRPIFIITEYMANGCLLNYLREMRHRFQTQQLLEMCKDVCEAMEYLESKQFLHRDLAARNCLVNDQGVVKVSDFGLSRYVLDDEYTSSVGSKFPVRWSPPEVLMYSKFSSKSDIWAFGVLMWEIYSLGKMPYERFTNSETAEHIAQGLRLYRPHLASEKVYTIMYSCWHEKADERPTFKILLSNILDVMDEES
Chain of Mitogen-activated protein kinase kinase kinase kinase 1 (Homo sapiens) (Q92918 whole entry, looked up, the tested form may be a part): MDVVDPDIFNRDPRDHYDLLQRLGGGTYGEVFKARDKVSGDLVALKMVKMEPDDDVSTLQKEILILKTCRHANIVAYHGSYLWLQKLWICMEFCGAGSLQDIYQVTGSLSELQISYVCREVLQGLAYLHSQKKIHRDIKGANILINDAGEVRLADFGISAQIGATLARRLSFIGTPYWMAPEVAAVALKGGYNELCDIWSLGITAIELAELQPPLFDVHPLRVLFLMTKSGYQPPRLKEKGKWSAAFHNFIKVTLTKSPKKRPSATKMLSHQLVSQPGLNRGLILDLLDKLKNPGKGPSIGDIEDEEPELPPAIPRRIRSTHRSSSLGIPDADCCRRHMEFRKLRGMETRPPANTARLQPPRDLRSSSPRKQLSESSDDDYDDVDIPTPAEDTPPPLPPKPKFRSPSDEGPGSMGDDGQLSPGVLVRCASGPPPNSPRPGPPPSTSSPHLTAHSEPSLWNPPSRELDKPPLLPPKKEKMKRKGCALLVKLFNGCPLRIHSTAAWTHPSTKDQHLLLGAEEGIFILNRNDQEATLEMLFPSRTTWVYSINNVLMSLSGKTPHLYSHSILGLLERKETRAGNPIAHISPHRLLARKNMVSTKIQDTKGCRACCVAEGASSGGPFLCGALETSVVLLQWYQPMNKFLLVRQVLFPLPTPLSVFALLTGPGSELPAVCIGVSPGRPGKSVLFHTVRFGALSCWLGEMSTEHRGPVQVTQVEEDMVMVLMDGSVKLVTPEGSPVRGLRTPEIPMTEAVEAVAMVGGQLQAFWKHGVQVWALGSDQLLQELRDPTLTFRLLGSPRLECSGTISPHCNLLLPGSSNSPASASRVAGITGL
Chain of Death-associated protein kinase 1 (Homo sapiens) (P53355 whole entry, looked up, the tested form may be a part): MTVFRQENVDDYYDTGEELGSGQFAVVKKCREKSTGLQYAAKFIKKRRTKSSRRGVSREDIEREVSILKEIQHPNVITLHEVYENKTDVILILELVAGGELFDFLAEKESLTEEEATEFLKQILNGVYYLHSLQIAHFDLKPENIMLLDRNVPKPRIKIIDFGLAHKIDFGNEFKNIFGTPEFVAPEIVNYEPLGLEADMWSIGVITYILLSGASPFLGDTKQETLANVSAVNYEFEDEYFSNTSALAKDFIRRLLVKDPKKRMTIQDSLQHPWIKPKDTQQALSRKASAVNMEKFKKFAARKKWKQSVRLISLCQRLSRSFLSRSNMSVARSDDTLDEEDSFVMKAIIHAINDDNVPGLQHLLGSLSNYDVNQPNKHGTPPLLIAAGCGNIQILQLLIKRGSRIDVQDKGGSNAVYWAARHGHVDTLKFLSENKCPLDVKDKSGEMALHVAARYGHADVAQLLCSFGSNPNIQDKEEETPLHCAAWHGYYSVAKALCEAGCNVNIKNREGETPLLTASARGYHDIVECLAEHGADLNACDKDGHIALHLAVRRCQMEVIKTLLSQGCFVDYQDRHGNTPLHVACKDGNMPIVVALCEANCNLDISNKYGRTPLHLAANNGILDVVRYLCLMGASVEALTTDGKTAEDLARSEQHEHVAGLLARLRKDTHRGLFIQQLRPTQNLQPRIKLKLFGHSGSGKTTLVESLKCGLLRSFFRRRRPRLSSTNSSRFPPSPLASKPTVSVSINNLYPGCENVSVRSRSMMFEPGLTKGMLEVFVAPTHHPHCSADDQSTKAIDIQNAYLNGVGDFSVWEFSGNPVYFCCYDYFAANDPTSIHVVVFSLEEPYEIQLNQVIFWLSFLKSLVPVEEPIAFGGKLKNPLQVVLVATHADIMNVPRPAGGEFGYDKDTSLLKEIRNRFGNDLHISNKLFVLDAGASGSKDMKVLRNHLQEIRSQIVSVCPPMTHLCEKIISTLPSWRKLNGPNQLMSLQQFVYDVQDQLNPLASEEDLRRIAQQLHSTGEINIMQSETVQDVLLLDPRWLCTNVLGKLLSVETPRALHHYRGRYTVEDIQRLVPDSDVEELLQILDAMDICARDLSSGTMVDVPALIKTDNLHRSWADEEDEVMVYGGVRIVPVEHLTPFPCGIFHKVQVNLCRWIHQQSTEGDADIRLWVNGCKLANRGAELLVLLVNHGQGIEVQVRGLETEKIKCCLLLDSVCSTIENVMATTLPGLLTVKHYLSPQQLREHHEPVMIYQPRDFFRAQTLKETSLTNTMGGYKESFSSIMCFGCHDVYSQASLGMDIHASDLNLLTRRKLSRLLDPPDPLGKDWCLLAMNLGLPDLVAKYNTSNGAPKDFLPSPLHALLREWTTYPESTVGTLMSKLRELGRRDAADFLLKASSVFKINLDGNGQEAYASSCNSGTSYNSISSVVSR

Turning to `O=C(Nc1cc(-c2cn(CCNc3c4c(nc5ccccc35)CCCC4)nn2)ccn1)Nc1cccc2c1C1CCCCN1C2=O` (racemic), the Activity in experiment [1] was 97%; in experiment [2], 44%; in experiment [3] it was 1.1%; in [4] it was 21%; in experiment [5], 100%; in experiment [6] it was 39%. The Activity in experiment [7] is 100%; in [8], 68%; in experiment [9] it was 4.7%; in experiment [10] it was 3%; in [11] it was 12%; in [12], 91%. The Activity in experiment [13] stood at 65%; in experiment [14], 35%; in experiment [15], 24%; in experiment [16] it was 6.2%; in [17] it was 2.8%; in experiment [18] it was 15%. Also, the Activity in experiment [19] was 0.35%; in experiment [20], 0.28%; in experiment [21], 80%; in [22], 100%; in [23], 100%; in [24] it was 38%.
